Literature values as cited in publication PMC9781020, “Anti-Mycobacterial N-(2-Arylethyl)quinolin-3-amines Inspired by Marine Sponge-Derived Alkaloid” (Molecules, 2022).

Test system: drug-sensitive M. tuberculosis H37Rv and extensively drug-resistant M. tuberculosis strains
Settings: cited from earlier work

In the case of `COC1=Cc2ccnc3c(NCCc4ccccc4)cnc(c23)C1=O` [Compound 1, 3-(phenethylamino)demethyl(oxy)aaptamine, reference compound], the MIC is listed as 1.5 to 6.0 µM.
